Here are results for 15 compounds from PubChem BioAssay AID328 (DTP/NCI, 2004).

Values joined by “and” are separate entries in the source; they are usually repeats but may differ in a detail not shown here. Identical values can stand only once. Toxic doses and inconclusive results are not listed.

The test relates to BDF1 mice, P388 leukemia ip, median survival T/C. Put plainly: NCI In Vivo Anticancer Drug Screen. Data for tumor model P388 Leukemia (intraperitoneal) in B6D2F1 (BDF1) mice. The following applies: endpoint: median survival time, higher = longer survival. The method in brief:
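Antitumour effect was judged in vivo: survival in drug-treated mice, normalised to that of vehicle-dosed controls, gives the reported T/C.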

Where [1] appears, read: dose: 12.5 mg/kg/injection, schedule: Q01DX009 (ip), vehicle: saline.
The mark [2] stands for this setting: dose: 25.0 mg/kg/injection, schedule: Q01DX009 (ip), vehicle: saline.
Where [3] appears, read: dose: 100.0 mg/kg/injection, schedule: Q01DX009 (ip), vehicle: saline with Tween-80.
Where [4] appears, read: dose: 100.0 mg/kg/injection, schedule: Q01DX009 (ip), vehicle: saline.
Where [5] appears, read: dose: 100.0 mg/kg/injection, schedule: Q04DX003 (ip), vehicle: saline with Tween-80.
The mark [6] stands for this setting: dose: 200.0 mg/kg/injection, schedule: Q01DX009 (ip), vehicle: saline.
[7] abbreviates: dose: 200.0 mg/kg/injection, schedule: Q04DX003 (ip), vehicle: saline with Tween-80.
Setting [8] is: dose: 400.0 mg/kg/injection, schedule: Q04DX003 (ip), vehicle: saline with Tween-80.
[9] abbreviates: dose: 200.0 mg/kg/injection, schedule: Q01DX009 (ip), vehicle: saline with Tween-80.
Where [10] appears, read: dose: 400.0 mg/kg/injection, schedule: Q01DX009 (ip), vehicle: saline with Tween-80.

With `O=C(Nc1ccc(C2=NCCCN2)cc1)c1ccc(C(=O)Nc2ccc(C3=NCCCN3)cc2)cc1`, the T/C is 177 % of control (dose: 7.2 mg/kg/injection, schedule: Q04DX003 (ip), vehicle: Klucel (hydroxypropylcellulose) (HPC)); 152 % of control (dose: 8.7 mg/kg/injection, schedule: Q04DX003 (ip), vehicle: saline with Tween-80); 194 % of control (dose: 10.8 mg/kg/injection, schedule: Q04DX003 (ip), vehicle: other); 194 % of control (dose: 12.0 mg/kg/injection, schedule: Q04DX003 (ip), vehicle: Klucel (hydroxypropylcellulose) (HPC)); 168 % of control and 172 % of control (dose: 13.2 mg/kg/injection, schedule: Q04DX003 (ip), vehicle: saline with Tween-80); 203 % of control (dose: 18.0 mg/kg/injection, schedule: Q04DX003 (ip), vehicle: other). For the same compound, the T/C was 250 % of control (dose: 20.0 mg/kg/injection, schedule: Q04DX003 (ip), vehicle: Klucel (hydroxypropylcellulose) (HPC)); 250 % of control and 195 % of control (dose: 20.0 mg/kg/injection, schedule: Q04DX003 (ip), vehicle: saline with Tween-80); 97 % of control (dose: 30.0 mg/kg/injection, schedule: Q04DX003 (ip), vehicle: other); 268 % of control and 272 % of control (dose: 30.0 mg/kg/injection, schedule: Q04DX003 (ip), vehicle: saline with Tween-80); 250 % of control (dose: 33.3 mg/kg/injection, schedule: Q04DX003 (ip), vehicle: Klucel (hydroxypropylcellulose) (HPC)).
As for `CCCCC(CC)COC(=O)/C=C/C(=O)OCC(CC)CCCC` (stereo unspecified), the T/C (dose: 100.0 mg/kg/injection, schedule: Q01DX009 (ip), vehicle: Klucel (hydroxypropylcellulose) (HPC)) was 86 % of control and the T/C (dose: 200.0 mg/kg/injection, schedule: Q01DX009 (ip), vehicle: Klucel (hydroxypropylcellulose) (HPC)) is 86 % of control.
Consider `NCCNCC[OH2+].NCCNCC[OH2+].O=S(=O)([O-])[O-].[Cu+2]`, for which the T/C (dose: 6.25 mg/kg/injection, schedule: Q01DX009 (ip), vehicle: saline) was 105 % of control; the T/C under setting [1] is 108 % of control; the T/C under setting [2] is 103 % of control.
As to `O=C1CC(c2ccc(O)cc2)CC(=O)C1C(C1CC=CCC1)N(CCCl)CCCl` (stereo unspecified), the T/C (dose: 100.0 mg/kg/injection, schedule: Q04DX003 (ip), vehicle: Klucel (hydroxypropylcellulose) (HPC)) was 109 % of control and 87 % of control; the T/C (dose: 200.0 mg/kg/injection, schedule: Q04DX003 (ip), vehicle: Klucel (hydroxypropylcellulose) (HPC)) is 120 % of control.
In the case of `OCCOCC(F)(F)F`, the T/C by setting is: (dose: 25.0 mg/kg/injection, schedule: Q01DX009 (ip), vehicle: saline with Tween-80) 98 % of control; (dose: 50.0 mg/kg/injection, schedule: Q01DX009 (ip), vehicle: saline with Tween-80) 105 % of control; under setting [3], 88 % of control and 108 % of control; under setting [4], 122 % of control; under setting [5], 100 % of control; (dose: 100.0 mg/kg/injection, schedule: Q04DX003 (ip), vehicle: saline) 100 % of control. The T/C runs as follows: under setting [6], 122 % of control; under setting [7], 123 % of control; (dose: 200.0 mg/kg/injection, schedule: Q04DX003 (ip), vehicle: saline) 100 % of control; (dose: 400.0 mg/kg/injection, schedule: Q01DX009 (ip), vehicle: saline) 111 % of control; under setting [8], 88 % of control; (dose: 400.0 mg/kg/injection, schedule: Q04DX003 (ip), vehicle: saline) 90 % of control.
For the compound `CC1(C)NC(=O)N(CN2CCN(CN3C(=O)NC(C)(C)C3=O)CC2)C1=O`, the T/C was 107 % of control (dose: 100.0 mg/kg/injection, schedule: Q04DX003 (ip), vehicle: saline sonified); 115 % of control (dose: 200.0 mg/kg/injection, schedule: Q04DX003 (ip), vehicle: saline sonified); 115 % of control (dose: 400.0 mg/kg/injection, schedule: Q04DX003 (ip), vehicle: saline sonified).
Turning to `CC(CN1CC(=O)NC(=O)C1)N1CC(=O)NC(=O)C1.[Cl-].[Pt+4]` (stereo unspecified), the T/C is, setting by setting: under setting [1], 100 % of control; under setting [2], 95 % of control and 118 % of control; (dose: 50.0 mg/kg/injection, schedule: Q01DX009 (ip), vehicle: saline) 97 % of control; under setting [4], 91 % of control; under setting [6], 105 % of control.
Turning to `O=C(CCl)N1c2ccccc2Oc2cc3ccccc3cc21`, the T/C is 104 % of control under setting [3]; 104 % of control under setting [5]; 90 % of control under setting [9]; 100 % of control under setting [7]; 104 % of control under setting [10]; 113 % of control under setting [8].
As to `CCCC(=O)Nc1ccc([N+](=O)[O-])cc1OC`, the T/C was 90 % of control under setting [3], 100 % of control under setting [9] and 100 % of control under setting [10].
Consider `CCSC(C(OC(C)=O)C(OC(C)=O)C(OC(C)=O)C(COC(C)=O)OC(C)=O)n1cnc2c(=S)nc[nH]c21` (stereo unspecified), for which the T/C was 98 % of control (dose: 12.5 mg/kg/injection, schedule: Q01DX005 (ip), vehicle: saline with Tween-80) and 95 % of control (dose: 25.0 mg/kg/injection, schedule: Q01DX005 (ip), vehicle: saline with Tween-80).
With `OCC(O)CCBr` (stereo unspecified), the T/C reads like this: (dose: 264.0 mg/kg/injection, schedule: Q01DX009 (ip), vehicle: saline with Tween-80) 150 % of control; under setting [10], 170 % of control; (dose: 600.0 mg/kg/injection, schedule: Q01DX009 (ip), vehicle: saline with Tween-80) 208 % of control.
As to `CCc1cccc(CC)c1-n1c(C)ccc1-c1ccccc1`, the T/C is, setting by setting: (dose: 50.0 mg/kg/injection, schedule: Q01DX009 (ip), vehicle: saline + alcohol) 106 % of control; (dose: 100.0 mg/kg/injection, schedule: Q01DX009 (ip), vehicle: saline + alcohol) 101 % of control; (dose: 200.0 mg/kg/injection, schedule: Q01DX009 (ip), vehicle: saline + alcohol) 106 % of control.
In the case of `CN=C(N)c1ccc(NC(=O)c2ccc(C(=O)Nc3ccc(C(N)=NC)cc3)cc2)cc1`, the T/C is, setting by setting: (dose: 15.0 mg/kg/injection, schedule: Q01DX010 (ip), vehicle: saline) 150 % of control and 160 % of control; (dose: 30.0 mg/kg/injection, schedule: Q01DX010 (ip), vehicle: saline) 160 % of control and 175 % of control; (dose: 60.0 mg/kg/injection, schedule: Q01DX010 (ip), vehicle: saline) 175 % of control and 180 % of control; (dose: 120.0 mg/kg/injection, schedule: Q01DX010 (ip), vehicle: saline) 160 % of control.
Turning to `COc1cccc2c(=O)cc(C)[nH]c12`, the T/C (dose: 25.0 mg/kg/injection, schedule: Q01DX009 (ip), vehicle: water) was 107 % of control; the T/C (dose: 50.0 mg/kg/injection, schedule: Q01DX009 (ip), vehicle: water) was 92 % of control; the T/C (dose: 50.0 mg/kg/injection, schedule: Q04DX003 (ip), vehicle: water) is 103 % of control; the T/C (dose: 100.0 mg/kg/injection, schedule: Q01DX009 (ip), vehicle: water) was 101 % of control; the T/C (dose: 100.0 mg/kg/injection, schedule: Q04DX003 (ip), vehicle: water) was 97 % of control; the T/C (dose: 200.0 mg/kg/injection, schedule: Q01DX009 (ip), vehicle: water) is 91 % of control. Moreover, the T/C by setting is: (dose: 200.0 mg/kg/injection, schedule: Q04DX003 (ip), vehicle: water) 106 % of control; (dose: 400.0 mg/kg/injection, schedule: Q01DX009 (ip), vehicle: water) 90 % of control; (dose: 400.0 mg/kg/injection, schedule: Q04DX003 (ip), vehicle: water) 98 % of control.
As to `COc1cc2c(c(OC)c1OC)-c1ccc(OC)c(=O)cc1[C@@H](NC(=O)CF)CC2`, the T/C by setting is: (dose: 0.09 mg/kg/injection, schedule: Q01DX009 (ip), vehicle: saline with Tween-80) 187 % of control; (dose: 0.09 mg/kg/injection, schedule: Q01DX009 (ip), vehicle: saline) 188 % of control; (dose: 0.18 mg/kg/injection, schedule: Q01DX009 (ip), vehicle: saline with Tween-80) 232 % of control; (dose: 0.18 mg/kg/injection, schedule: Q01DX009 (ip), vehicle: saline) 257 % of control; (dose: 0.37 mg/kg/injection, schedule: Q01DX009 (ip), vehicle: saline) 103 % of control; (dose: 46.2 micrograms/kg/injection, schedule: Q01DX009 (ip), vehicle: saline with Tween-80) 158 % of control. The T/C is 89 % of control (dose: 185.0 micrograms/kg/injection, schedule: Q01DX009 (ip), vehicle: saline with Tween-80) and 247 % of control (dose: 370.0 micrograms/kg/injection, schedule: Q01DX009 (ip), vehicle: saline with Tween-80).
